Measurements from US9120812B2, “Pyrimidooxazocine derivatives as mTOR-inhibitors” (SANOFI, priority 2012, dated 2015).

Key:
[1] = system: U87MG tumour cells; assay: Test of in vitro proliferation of U87MG tumour cells; assay type: cell-based; conditions: Homo sapiens, U-87 MG, 72 h, U87MG cells, 72 hours; read-out: U87 Cell Proliferation IC50
Method: Model 4: Test of in vitro Proliferation of U87MG Tumour Cells.
The cell growth is determined with the reagent CellTiter 96 AQueous One Solution Cell Proliferation Assay from Promega (Cat. No. G3581).

[2] = system: Akt-pS473 in U87MG cells; conditions: Homo sapiens, U-87 MG; for IC50: read-out: U87 Akt-pS473 % Inhibition or IC50, nM (IC50), U87MG cells
[3] = target: mTOR (human recombinant aa mTOR 1360-2549) (Homo sapiens (Human), UniProt P42345); assay: mTOR enzymatic test by TR-FRET (phosphorylation of GFP-4EBP1); assay type: biochemical
mTOR (human recombinant aa mTOR 1360-2549), sequence (P42345 1360-2549): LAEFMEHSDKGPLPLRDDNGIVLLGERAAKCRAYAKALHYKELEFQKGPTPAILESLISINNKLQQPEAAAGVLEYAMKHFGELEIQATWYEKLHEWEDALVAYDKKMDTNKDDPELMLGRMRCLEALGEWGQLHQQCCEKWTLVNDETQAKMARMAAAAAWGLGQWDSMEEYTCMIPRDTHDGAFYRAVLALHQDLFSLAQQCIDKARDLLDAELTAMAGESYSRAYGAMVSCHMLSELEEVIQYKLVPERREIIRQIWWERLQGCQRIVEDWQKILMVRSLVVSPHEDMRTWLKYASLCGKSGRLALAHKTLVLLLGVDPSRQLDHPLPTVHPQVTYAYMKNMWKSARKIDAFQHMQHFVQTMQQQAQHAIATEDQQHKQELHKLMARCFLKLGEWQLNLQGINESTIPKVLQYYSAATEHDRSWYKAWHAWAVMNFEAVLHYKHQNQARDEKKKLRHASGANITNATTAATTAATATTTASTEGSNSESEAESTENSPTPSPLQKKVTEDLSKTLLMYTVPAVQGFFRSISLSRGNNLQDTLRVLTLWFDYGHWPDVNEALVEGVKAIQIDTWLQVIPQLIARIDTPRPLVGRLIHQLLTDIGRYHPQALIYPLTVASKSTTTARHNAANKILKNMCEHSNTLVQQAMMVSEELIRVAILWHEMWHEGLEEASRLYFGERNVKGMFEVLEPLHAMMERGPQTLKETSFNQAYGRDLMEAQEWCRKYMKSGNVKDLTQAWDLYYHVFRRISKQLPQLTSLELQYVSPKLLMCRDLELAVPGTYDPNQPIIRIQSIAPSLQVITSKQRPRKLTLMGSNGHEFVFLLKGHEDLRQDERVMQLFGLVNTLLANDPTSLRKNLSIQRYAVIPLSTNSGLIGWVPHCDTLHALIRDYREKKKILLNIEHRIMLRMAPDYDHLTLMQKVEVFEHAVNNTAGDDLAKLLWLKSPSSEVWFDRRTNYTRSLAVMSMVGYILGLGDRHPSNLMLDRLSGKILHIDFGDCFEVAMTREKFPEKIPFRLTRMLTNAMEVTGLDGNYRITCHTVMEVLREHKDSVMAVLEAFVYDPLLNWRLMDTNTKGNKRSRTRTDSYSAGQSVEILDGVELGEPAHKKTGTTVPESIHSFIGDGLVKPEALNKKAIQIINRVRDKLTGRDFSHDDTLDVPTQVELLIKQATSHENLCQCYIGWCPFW
Procedure, shortened: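 TR-FRET detection of GFP-4EBP1 phosphorylation by a terbium-labelled anti-phospho-Thr46 antibody. Kinase reaction ran 30 min at room temperature, was quenched with EDTA (10 mM final) plus Tb-antibody (2 nM final) and left 60 min. Emission at 520 and 490 nm after 340 nm excitation, reported as the 520/490 ratio.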

[4] = target: PI3Kα (p110α/p85α) (Homo sapiens (Human), UniProt P42336); assay: PI3Kα enzymatic test by measuring the consumption of ATP; assay type: biochemical
PI3Kα (p110α/p85α), sequence (P42336 whole entry): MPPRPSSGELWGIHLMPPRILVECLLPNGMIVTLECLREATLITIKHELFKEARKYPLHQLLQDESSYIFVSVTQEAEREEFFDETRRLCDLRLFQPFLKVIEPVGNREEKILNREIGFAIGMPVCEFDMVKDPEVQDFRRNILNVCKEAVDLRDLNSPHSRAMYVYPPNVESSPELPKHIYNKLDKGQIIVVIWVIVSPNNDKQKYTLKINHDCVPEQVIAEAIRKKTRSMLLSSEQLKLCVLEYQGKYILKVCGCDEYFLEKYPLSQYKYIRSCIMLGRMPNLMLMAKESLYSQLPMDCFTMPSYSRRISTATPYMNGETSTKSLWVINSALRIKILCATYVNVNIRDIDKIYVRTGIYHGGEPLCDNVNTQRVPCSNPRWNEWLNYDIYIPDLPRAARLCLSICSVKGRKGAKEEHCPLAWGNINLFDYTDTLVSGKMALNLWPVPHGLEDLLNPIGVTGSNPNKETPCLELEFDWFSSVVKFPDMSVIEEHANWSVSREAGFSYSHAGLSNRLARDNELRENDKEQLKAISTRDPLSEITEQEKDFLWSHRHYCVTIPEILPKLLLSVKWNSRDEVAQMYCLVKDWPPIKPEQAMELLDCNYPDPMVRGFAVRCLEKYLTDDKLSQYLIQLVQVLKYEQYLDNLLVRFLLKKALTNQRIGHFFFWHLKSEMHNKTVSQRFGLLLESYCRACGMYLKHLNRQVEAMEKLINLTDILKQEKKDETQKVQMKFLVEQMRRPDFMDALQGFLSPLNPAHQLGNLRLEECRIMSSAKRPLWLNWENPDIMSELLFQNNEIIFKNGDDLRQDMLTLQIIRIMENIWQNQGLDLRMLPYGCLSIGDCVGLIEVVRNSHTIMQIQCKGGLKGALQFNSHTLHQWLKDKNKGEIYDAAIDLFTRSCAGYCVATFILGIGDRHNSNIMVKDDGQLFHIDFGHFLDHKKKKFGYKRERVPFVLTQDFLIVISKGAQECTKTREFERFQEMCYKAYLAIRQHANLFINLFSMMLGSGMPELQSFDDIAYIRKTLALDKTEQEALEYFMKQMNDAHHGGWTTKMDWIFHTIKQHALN
PI3Kα (p110α/p85α), sequence (P27986 whole entry partner): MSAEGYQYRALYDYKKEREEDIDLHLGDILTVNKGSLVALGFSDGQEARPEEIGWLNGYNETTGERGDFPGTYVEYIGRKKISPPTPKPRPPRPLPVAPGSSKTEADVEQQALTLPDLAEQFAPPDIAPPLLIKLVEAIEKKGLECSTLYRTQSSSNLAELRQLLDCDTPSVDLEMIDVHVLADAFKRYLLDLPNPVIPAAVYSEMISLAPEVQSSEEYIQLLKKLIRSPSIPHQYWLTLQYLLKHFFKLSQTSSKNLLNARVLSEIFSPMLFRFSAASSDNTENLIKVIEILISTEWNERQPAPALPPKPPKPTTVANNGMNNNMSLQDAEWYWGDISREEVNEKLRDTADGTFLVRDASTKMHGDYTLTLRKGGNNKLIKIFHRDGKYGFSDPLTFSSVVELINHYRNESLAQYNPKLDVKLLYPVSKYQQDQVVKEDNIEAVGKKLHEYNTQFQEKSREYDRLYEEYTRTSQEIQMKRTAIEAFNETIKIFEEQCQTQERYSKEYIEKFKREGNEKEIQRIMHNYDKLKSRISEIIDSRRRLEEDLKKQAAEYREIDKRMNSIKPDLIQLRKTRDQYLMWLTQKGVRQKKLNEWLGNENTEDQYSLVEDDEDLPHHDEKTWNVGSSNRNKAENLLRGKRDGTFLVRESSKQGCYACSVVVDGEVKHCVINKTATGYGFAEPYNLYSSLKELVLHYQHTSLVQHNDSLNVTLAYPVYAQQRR
Procedure, shortened: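 p110α/p85α (1.7 μg/ml) with 50 μM PIP2 and 2 μM ATP in pH 7.5 Tris buffer with EGTA, MgCl2, Chaps, DTT; reaction 90 min. Remaining ATP measured by luciferin/luciferase luminescence; IC50 from threefold serial dilutions spanning at least 10 000-fold.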

SMILES	IC50 [1]	IC50 [2]	IC50 [3]	PI3Ka IC50 [4]	inhibition at 1 µM ([2]; read-out: U87 Akt-pS473 % Inhibition)
CCN1CC(C)(C)Oc2nc(N3CCOC[C@@H]3C)nc(-c3ccc(NC(=O)Nc4ccc(C)cn4)c(F)c3)c2C1=O [Example 164, 1-{4-[6-Ethyl-8,8-dimethyl-2-((S)-3-methylmorpholin-4-yl)-5-oxo-5,6,7,8-tetrahydro-9-oxa-1,3,6-triazabenzocyclohepten-4-yl]-2-fluorophenyl}-3-(5-methylpyridin-2-yl)urea]	872 nM	227 nM	85 nM	3800 nM	
CCN1CC(C)(C)Oc2nc(N3CC4CCC(C3)O4)nc(-c3ccc(NC(=O)Nc4ccon4)c(C)c3)c2C1=O [Example 165, 1-{4-[6-Ethyl-8,8-dimethyl-2-(8-oxa-3-azabicyclo[3.2.1]oct-3-yl)-5-oxo-5,6,7,8-tetrahydro-9-oxa-1,3,6-triazabenzocyclohepten-4-yl]-2-methylphenyl}-3-isoxazol-3-ylurea]	4200 nM	1530 nM	180 nM	>10000 nM	
CCN1CC(C)(C)Oc2nc(N3CCOC[C@@H]3C)nc(-c3ccc(NC(=O)Nc4ccnc(C)c4)c(F)c3)c2C1=O [Example 199, 1-{4-[6-Ethyl-8,8-dimethyl-2-((S)-3-methylmorpholin-4-yl)-5-oxo-5,6,7,8-tetrahydro-9-oxa-1,3,6-triazabenzocyclohepten-4-yl]-2-fluorophenyl}-3-(2-methylpyridin-4-yl)urea]	32 nM	10 nM	39 nM	174 nM	
CCN1CC(C)(C)Oc2nc(N3CC4CCC(C3)O4)nc(-c3ccc(NC(=O)Nc4cnc(OC)nc4)c(F)c3)c2C1=O [Example 136, 1-{4-[6-Ethyl-8,8-dimethyl-2-(8-oxa-3-azabicyclo[3.2.1]oct-3-yl)-5-oxo-5,6,7,8-tetrahydro-9-oxa-1,3,6-triazabenzocyclohepten-4-yl]-2-fluorophenyl}-3-(2-methoxypyrimidin-5-yl)urea]	239 nM	37 nM	34 nM	>10000 nM	
CCN1CC(C)(C)Oc2nc(N3CC4CCC(C3)O4)nc(-c3ccc(NC(=O)Nc4ccc(N5CCOC[C@H]5C)nc4)c(F)c3)c2C1=O [Example 30, 1-{4-[6-ethyl-8,8-dimethyl-2-(8-oxa-3-azabicyclo[3.2.1]oct-3-yl)-5-oxo-5,6,7,8-tetrahydro-9-oxa-1,3,6-triazabenzocyclohepten-4-yl]-2-fluorophenyl}-3-[6-((R)-3-methylmorpholin-4-yl)pyridin-3-yl]urea]	46 nM	15 nM	21 nM	>10000 nM	
C[C@H]1COCCN1c1ccc(NC(=O)Nc2ccc(-c3nc(N4C5CCC4COC5)nc4c3C(=O)N(C)CC(C)(C)O4)cc2F)cn1 [Example 74, 1-{2-Fluoro-4-[6,8,8-trimethyl-2-(3-oxa-8-azabicyclo[3.2.1]oct-8-yl)-5-oxo-5,6,7,8-tetrahydro-9-oxa-1,3,6-triazabenzocyclohepten-4-yl]phenyl}-3-[6-((S)-3-methylmorpholin-4-yl)pyridin-3-yl]urea]	126 nM	31 nM	64 nM	>10000 nM	
CCN1CC(C)(C)Oc2nc(N3CC4CCC(C3)O4)nc(-c3ccc(Nc4nnc(C)s4)cc3)c2C1=O [Example 121, 6-Ethyl-8,8-dimethyl-4-[4-(5-methyl-[1,3,4]thiadiazol-2-ylamino)phenyl]-2-(8-oxa-3-azabicyclo[3.2.1]oct-3-yl)-7,8-dihydro-6H-9-oxa-1,3,6-triazabenzocyclohepten-5-one]	802 nM	130 nM	66 nM	>10000 nM	
CCN1CC(C)(C)Oc2nc(N3CCOC[C@@H]3C)nc(-c3ccc(NC(=O)Nc4ccccc4F)cc3)c2C1=O [Example 202, 1-{4-[6-Ethyl-8,8-dimethyl-2-((S)-3-methylmorpholin-4-yl)-5-oxo-5,6,7,8-tetrahydro-9-oxa-1,3,6-triazabenzocyclohepten-4-yl]phenyl}-3-(2-fluorophenyl)urea]	73 nM	5 nM	19 nM	213 nM	
CNC(=O)Nc1ccc(-c2nc(N3CC4CCC(C3)O4)nc3c2C(=O)N(CCOC)CC(C)(C)O3)cc1F [Example 210, 1-{2-Fluoro-4-[6-(2-methoxyethyl)-8,8-dimethyl-2-(8-oxa-3-azabicyclo[3.2.1]oct-3-yl)-5-oxo-5,6,7,8-tetrahydro-9-oxa-1,3,6-triazabenzocyclohepten-4-yl]phenyl}-3-methylurea]	625 nM	174 nM	41 nM	>10000 nM	
CCN1CC(C)(C)Oc2nc(N3CC4CCC(C3)O4)nc(-c3ccc(NC(=O)OC[C@H](C)O)cc3)c2C1=O [Example 88, {4-[6-Ethyl-8,8-dimethyl-2-(8-oxa-3-azabicyclo[3.2.1]oct-3-yl)-5-oxo-5,6,7,8-tetrahydro-9-oxa-1,3,6-triazabenzocyclohepten-4-yl]phenyl}carbamic acid (S)-2-hydroxypropyl ester]	1900 nM		198 nM	>10000 nM	65%
CCN1CC(C)(C)Oc2nc(N3CC4CCC(C3)O4)nc(-c3ccc(NC(=O)Nc4ccc(C(=O)N5CCC(N(C)C)CC5)cc4)cc3)c2C1=O [Example 177, 1-[4-(4-Dimethylaminopiperidine-1-carbonyl)phenyl]-3-{4-[6-ethyl-8,8-dimethyl-2-(8-oxa-3-azabicyclo[3.2.1]oct-3-yl)-5-oxo-5,6,7,8-tetrahydro-9-oxa-1,3,6-triazabenzocyclohepten-4-yl]phenyl}urea]	57 nM	435 nM	84 nM	87 nM	
CCNC(=O)Nc1ccc(-c2nc(N3CCOCC3)nc3c2C(=O)N(CC)CC(C)(C)O3)cc1 [Example 96, 1-Ethyl-3-[4-(6-ethyl-8,8-dimethyl-2-morpholin-4-yl-5-oxo-5,6,7,8-tetrahydro-9-oxa-1,3,6-triazabenzocyclohepten-4-yl)phenyl]urea]	1470 nM	107 nM	72 nM	1444 nM	
Cc1ccc(NC(=O)Nc2ccc(-c3nc(N4C5CCC4COC5)nc4c3C(=O)N(C)CC(C)(C)O4)cc2)nc1 [Example 48, 1-(5-Methylpyridin-2-yl)-3-{4-[6,8,8-trimethyl-2-(3-oxa-8-azabicyclo[3.2.1]oct-8-yl)-5-oxo-5,6,7,8-tetrahydro-9-oxa-1,3,6-triazabenzocyclohepten-4-yl]phenyl}urea]	185 nM	86 nM	47 nM	>10000 nM	
CCN1CC(C)(C)Oc2nc(N3CC4CCC(C3)O4)nc(-c3ccc(NC(=O)Nc4ccnc(C)c4)c(F)c3)c2C1=O [Example 56, 1-{4-[6-Ethyl-8,8-dimethyl-2-(8-oxa-3-azabicyclo[3.2.1]oct-3-yl)-5-oxo-5,6,7,8-tetrahydro-9-oxa-1,3,6-triazabenzocyclohepten-4-yl]-2-fluorophenyl}-3-(2-methylpyridin-4-yl)urea]	57 nM	26 nM	41 nM	3230 nM	
CCN1CC(C)(C)Oc2nc(N3C4CCC3COC4)nc(-c3ccc(NC(=O)OCCO)cc3F)c2C1=O [Example 243, {4-[6-Ethyl-8,8-dimethyl-2-(3-oxa-8-azabicyclo[3.2.1]oct-8-yl)-5-oxo-5,6,7,8-tetrahydro-9-oxa-1,3,6-triazabenzocyclohepten-4-yl]-3-fluorophenyl}carbamic acid 2-hydroxyethyl ester]	610 nM	160 nM	63 nM	3870 nM	
CCN1CC(C)(C)Oc2nc(N3CCOC[C@@H]3C)nc(-c3ccc(NC(=O)Nc4cnc(C)cn4)c(F)c3)c2C1=O [Example 167, 1-{4-[6-Ethyl-8,8-dimethyl-2-((S)-3-methylmorpholin-4-yl)-5-oxo-5,6,7,8-tetrahydro-9-oxa-1,3,6-triazabenzocyclohepten-4-yl]-2-fluorophenyl}-3-(5-methylpyrazin-2-yl)urea]	500 nM	158 nM	62 nM	3520 nM	
CCN1CC(C)(C)Oc2nc(N3CC4CCC(C3)O4)nc(-c3ccc(NC(=O)Nc4ccc(N5CCC(O)C5)cn4)cc3)c2C1=O (stereo not drawn) [Example 72, 1-{4-[6-Ethyl-8,8-dimethyl-2-(8-oxa-3-azabicyclo[3.2.1]oct-3-yl)-5-oxo-5,6,7,8-tetrahydro-9-oxa-1,3,6-triazabenzocyclohepten-4-yl]phenyl}-3-[5-(3-hydroxypyrrolidin-1-yl)pyridin-2-yl]urea]	498 nM	58 nM	23 nM	>10000 nM	
CCN1CC(C)(C)Oc2nc(N3CC4CCC(C3)O4)nc(-c3ccc(NC(=O)OCCO)c(F)c3)c2C1=O [Example 222, {4-[6-Ethyl-8,8-dimethyl-2-(8-oxa-3-azabicyclo[3.2.1]oct-3-yl)-5-oxo-5,6,7,8-tetrahydro-9-oxa-1,3,6-triazabenzocyclohepten-4-yl]-2-fluorophenyl}carbamic acid 2-hydroxyethyl ester]	1680 nM	213 nM	123 nM	>10000 nM	
